According to article PMC10036551, “Genome mining unveils a class of ribosomal peptides with two amino termini” (Nature Communications, 2023):
Residues, ends and D or L forms follow the SMILES beside them. *: point of attachment. X1 = C[C@@H](CN*)N(C)C

Format: physicochemical
Description: The HPLC-purified products were analyzed by high-resolution mass spectrometry and tandem mass spectrometry (HR-MS/MS). […] Considering the predicted functions of genes encoded by the mpa BGC, we proposed that Thr underwent conversion to Dmp. To evaluate this hypothesis, a sufficient amount of 1 was accumulated for structure determination, due to its higher post-purification yield than 2 and 3. […] NMR analyses (^1H, ^13C, ^1H-^1H COSY, ^1H-^13C HSQC and ^1H-^13C HMBC) were then conducted in HFIP-d2 and a substructure corresponding to Dmp was deduced.

solubility in commonly used NMR solvents: only sparingly soluble
solubility in hexafluoroisopropanol (HFIP): highly soluble
Structure (SMILES): CC[C@H](C)[C@H](NC(=O)CNC(=O)[C@@H](NC(=O)[C@H](CC(C)C)NC(=O)[C@@H](NC(=O)[C@H](CC(C)C)NC(=O)[C@H](C)NC(=O)CNC(=O)[C@@H](NC(=O)[C@@H](NC(=O)CNC(=O)[C@H](CCC(N)=O)NC(=O)[C@H](Cc1ccc(O)cc1)NC(=O)[C@H](Cc1ccccc1)NC(=O)[C@H](CO)NC(=O)[C@H](CC(=O)O)NC(=O)[C@H](Cc1c[nH]c2ccccc12)NC(=O)[C@@H](N)CO)C(C)C)[C@@H](C)CC)C(C)C)[C@@H](C)CC)C(=O)NCC(=O)N[C@@H](C)C(=O)N[C@@H](C)C(=O)N[C@@H](C)C(=O)N[C@@H](C)C(=O)NC[C@H](C)N(C)C [compound 1] (H-SWDSFYQGVIGALVLIGIGAAAA-X1)
